Our source for the IC50 values is patent US20260116868A1 (Arcus Biosciences, Inc., priority 2023, published 2026).

This experiment deals with T1, Cbl-b (Homo sapiens, UniProt Q13191).
T1 construct: biotin (biotinylated protein)
Briefly: Cbl-b probe displacement HTRF binding assay. Particulars: 0.4 nM Cbl-b, 150 nM BODIPY probe. The essentials:
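Compound competes with BODIPY probe (150 nM) for biotinylated Cbl-b (0.4 nM) in HEPES/NaCl/Triton/TCEP/BSA buffer; 60 min preincubation, 15 min with probe, room temperature. Tb-streptavidin HTRF read; % displacement vs DMSO and no-protein controls, IC50 from four-parameter fit.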
(TR-FRET usually uses a lanthanide donor and a delayed reading to cut background.)

T1 sequence (Q13191 whole entry, species assumed): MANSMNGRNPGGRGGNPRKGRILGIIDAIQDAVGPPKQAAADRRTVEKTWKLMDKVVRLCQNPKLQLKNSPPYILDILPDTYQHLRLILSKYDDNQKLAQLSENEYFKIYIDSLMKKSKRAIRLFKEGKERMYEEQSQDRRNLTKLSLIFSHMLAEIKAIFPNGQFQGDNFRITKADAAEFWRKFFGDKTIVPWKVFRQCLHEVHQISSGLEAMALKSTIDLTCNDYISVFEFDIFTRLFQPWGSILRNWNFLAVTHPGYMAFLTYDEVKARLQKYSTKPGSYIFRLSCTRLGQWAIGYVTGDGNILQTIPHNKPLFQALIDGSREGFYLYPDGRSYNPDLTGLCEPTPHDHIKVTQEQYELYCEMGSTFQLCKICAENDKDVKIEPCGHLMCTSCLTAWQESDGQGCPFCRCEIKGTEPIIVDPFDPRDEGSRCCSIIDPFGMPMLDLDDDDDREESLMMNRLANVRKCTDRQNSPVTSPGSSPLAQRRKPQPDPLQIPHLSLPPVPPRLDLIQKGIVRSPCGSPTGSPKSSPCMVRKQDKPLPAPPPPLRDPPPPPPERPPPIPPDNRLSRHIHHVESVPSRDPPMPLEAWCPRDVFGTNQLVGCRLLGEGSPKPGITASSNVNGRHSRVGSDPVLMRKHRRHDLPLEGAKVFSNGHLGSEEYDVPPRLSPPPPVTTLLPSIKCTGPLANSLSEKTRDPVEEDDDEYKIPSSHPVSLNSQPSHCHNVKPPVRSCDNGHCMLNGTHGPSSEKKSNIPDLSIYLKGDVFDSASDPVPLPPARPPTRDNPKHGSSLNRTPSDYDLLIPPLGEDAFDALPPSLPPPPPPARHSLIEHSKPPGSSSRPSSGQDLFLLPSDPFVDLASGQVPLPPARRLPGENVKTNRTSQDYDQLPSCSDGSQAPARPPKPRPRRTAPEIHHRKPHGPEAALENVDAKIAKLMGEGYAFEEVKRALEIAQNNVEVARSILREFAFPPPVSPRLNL

Usually IC50 stands for the concentration needed to halve the response being measured. In turn, `CO[C@@H](C)CNCc1cc(C(=O)Nc2cc(-c3ccc(Cl)cc3C(=O)N(C)C)cc(C3CC3)n2)c(=O)n(C2CC2)c1` [Example 161, N-{4-[4-Chloro-2-(N,N-dimethylcarbamoyl)phenyl]-6-cyclopropyl-2-pyridyl}-1-cyclopropyl-5-{[(S)-2-methoxypropylamino]methyl}-2-oxo-1,2-dihydronicotinamide] gave a concentration for half-maximal inhibition (IC50) of less than 100 nM.

`CO[C@@H](C)CNCc1cc(C(=O)Nc2cc(-c3ccc(Cl)cc3C(=O)N3CC(F)(F)C3)cc(OCC(F)F)n2)c(=O)n(C2CC2)c1` [Example 162] showed an IC50 of less than 100 nM.

In the case of `CO[C@@H](C)CNCc1cc(C(=O)Nc2cc(-c3ccc(Cl)cc3C(=O)N3CC(F)(F)C3)cc(OCC(F)(F)F)n2)c(=O)n(C2CC2)c1` [Example 163], the IC50 is less than 100 nM.

In turn, `O=C(Nc1cc(-c2ccc(OC(F)F)cc2C(=O)N2CC(F)(F)C2)cc(OCC(F)F)n1)c1cc(CNC[C@@H]2CCCO2)cn(C2CC2)c1=O` [Example 164] had an IC50 of less than 100 nM.

`O=C(Nc1cc(-c2ccc(OC(F)F)cc2C(=O)N2CC(F)(F)C2)cc(OCC(F)F)n1)c1cc(CNC[C@@H]2COCCO2)cn(C2CC2)c1=O` [Example 165] registered an IC50 of less than 100 nM.

With `Cc1ccc(-c2cc(NC(=O)c3cc(CNC[C@@H]4CCCO4)cn(C4CC4)c3=O)nc(OCC(F)F)c2)c(C(=O)N2CC(F)(F)C2)c1` [Example 166], the IC50 is less than 100 nM.

Molecule `C[C@H](NCc1cc(C(=O)Nc2cc(-c3ccc(C#N)cc3C(=O)N3CC(F)(F)C3)cc(C3CC3)n2)c(=O)n(C)c1)C1CCC1` [Example 167] yielded a half-maximal inhibitory concentration (IC50) of less than 100 nM.

Regarding `CCn1cc(CNCC(C)C)cc(C(=O)Nc2cc(-c3ccc(C#N)cc3C(=O)N3CC(F)(F)C3)cc(C3CC3)n2)c1=O` [Example 168], the IC50 is less than 100 nM.

In turn, `CO[C@@H](C)CNCc1cc(C(=O)Nc2cc(-c3ccc(Cl)cc3C(=O)N3CC(F)(F)C3)cc(NC(C)C)n2)c(=O)n(C)c1` [Example 169] came in with an IC50 of less than 100 nM.

Molecule `CCn1cc(CNC[C@H](C)OC)cc(C(=O)Nc2cc(-c3ccc(C#N)cc3C(=O)N3CC(F)(F)C3)cc(C3CC3)n2)c1=O` [Example 170] showed a half-inhibitory concentration (IC50) of less than 100 nM.

Regarding `COC[C@H](C)NCc1cc(C(=O)Nc2cc(-c3ccc(C#N)cc3C(=O)N3CC(F)(F)C3)cc(C3CC3)n2)c(=O)n(C)c1` [Example 171], the IC50 was less than 100 nM.

`CCNc1cc(-c2ccc(Cl)cc2C(=O)N2CC(F)(F)C2)cc(NC(=O)c2cc(CNC[C@H](C)OC)cn(C)c2=O)n1` [Example 172] showed a concentration for half-maximal inhibition (IC50) of less than 100 nM.

On to `Cn1cc(CNC[C@@H]2CCCO2)cc(C(=O)Nc2cc(-c3ccc(C#N)cc3C(=O)N3CC(F)(F)C3)cc(C3CC3)n2)c1=O` [Example 173], for which the IC50 is less than 100 nM.

`CO[C@@H](C)CNCc1cc(C(=O)Nc2cc(-c3ccc(C#N)cc3C(=O)N3CC(F)(F)C3)cc(C3CC3)n2)c(=O)n(CC(F)(F)F)c1` [Example 174] had an IC50 of less than 100 nM.

`CC(C)CNCc1cc(C(=O)Nc2cc(-c3ccc(C#N)cc3C(=O)N3CC(F)(F)C3)cc(C3CC3)n2)c(=O)n(C)c1` [Example 175] displayed a half-maximal inhibitory concentration (IC50) of less than 100 nM.

Take `CO[C@@H](C)CNCc1cc(C(=O)Nc2cc(-c3ccc(OC(F)F)cc3C(=O)N3CC(F)(F)C3)cc(C3CC3)n2)c(=O)n(C)c1` [Example 176]: the concentration for half-maximal inhibition (IC50) was less than 100 nM.

For `CO[C@@H](C)CNCc1cc(C(=O)Nc2cc(-c3c(F)cc(Cl)cc3C(=O)N3CC(F)(F)C3)cc(C3CC3)n2)c(=O)n(C)c1` [Example 177], the half-maximal inhibitory concentration (IC50) is less than 100 nM.

Turning to `CO[C@@H](C)CNCc1cc(C(=O)Nc2cc(-c3ccc(C#N)cc3C(=O)N3CC(F)(F)C3)cc(C3CC3)n2)c(=O)n(C)c1` [Example 178], the IC50 is less than 100 nM.

`N#Cc1ccc(-c2cc(NC(=O)c3cc(CNC[C@@H]4CCCO4)cn(CC(F)(F)F)c3=O)nc(C3CC3)c2)c(C(=O)N2CC(F)(F)C2)c1` [Example 179] gave a half-inhibitory concentration (IC50) of less than 100 nM.

For `CCOc1cc(-c2ccc(Cl)cc2C(=O)N2CC(F)(F)C2)cc(NC(=O)c2cc(CNC[C@H](C)OC)cn(C)c2=O)n1` [Example 180], the 50% inhibitory concentration (IC50) was less than 100 nM.

In turn, `CCOc1cc(-c2ccc(C#N)cc2C(=O)N2CC(F)(F)C2)cc(NC(=O)c2cc(CNC[C@H](C)OC)cn(C)c2=O)n1` [Example 181] returned an IC50 of less than 100 nM.

With `CCNc1cc(-c2ccc(Cl)cc2C(=O)N2CC(F)(F)C2)cc(NC(=O)c2cc(CNC[C@@H]3CCCO3)cn(C)c2=O)n1` [Example 182], the concentration for half-maximal inhibition (IC50) was less than 100 nM.

In turn, `CCOc1cc(-c2ccc(C#N)cc2C(=O)N2CC(F)(F)C2)cc(NC(=O)c2cc(CNC[C@@H]3CCCO3)cn(C)c2=O)n1` [Example 183] had an IC50 of less than 100 nM.

Consider `CCNc1cc(-c2ccc(Cl)cc2C(=O)N2CC(F)(F)C2)cc(NC(=O)c2cc(CNCC(C)C)cn(C)c2=O)n1` [Example 184], for which the IC50 is less than 100 nM.

In the case of `Cn1cc(CNC[C@@H]2CCCO2)cc(C(=O)Nc2cc(-c3ccc(OC(F)F)cc3C(=O)N3CC(F)(F)C3)cc(C3CC3)n2)c1=O` [Example 185], the IC50 was less than 100 nM.

As to `CCn1cc(CNC[C@@H]2CCCO2)cc(C(=O)Nc2cc(-c3ccc(C#N)cc3C(=O)N3CC(F)(F)C3)cc(C3CC3)n2)c1=O` [Example 186], the half-inhibitory concentration (IC50) is less than 100 nM.

On to `COCCNCc1cc(C(=O)Nc2cc(-c3ccc(C#N)cc3C(=O)N3CC(F)(F)C3)cc(C3CC3)n2)c(=O)n(C)c1` [Example 187], for which the IC50 was less than 100 nM.

Consider `C[C@H](NCc1cc(C(=O)Nc2cc(-c3ccc(C#N)cc3C(=O)N3CC(F)(F)C3)cc(C3CC3)n2)c(=O)n(CC(F)(F)F)c1)C1CC1` [Example 188], for which the half-maximal inhibitory concentration (IC50) is less than 100 nM.

On to `CCn1cc(CNCC2CC2)cc(C(=O)Nc2cc(-c3ccc(C#N)cc3C(=O)N3CC(F)(F)C3)cc(C3CC3)n2)c1=O` [Example 189], for which the IC50 is less than 100 nM.

As to `Cn1cc(CNC[C@@H]2CCCCO2)cc(C(=O)Nc2cc(-c3ccc(C#N)cc3C(=O)N3CC(F)(F)C3)cc(C3CC3)n2)c1=O` [Example 190], the IC50 is less than 100 nM.

Turning to `CO[C@@H](C)CNCc1cc(C(=O)Nc2cc(-c3ccc(C#N)cc3C(=O)N3CC(F)(F)C3)cc(N(C)C)n2)c(=O)n(C2CC2)c1` [Example 191], the IC50 was less than 100 nM.

Turning to `Cn1cc(CNCC2CC2)cc(C(=O)Nc2cc(-c3ccc(C#N)cc3C(=O)N3CC(F)(F)C3)cc(C3CC3)n2)c1=O` [Example 192], the IC50 was less than 100 nM.

As to `CC(C)CNCc1cc(C(=O)Nc2cc(-c3ccc(C#N)cc3C(=O)N3CC(F)(F)C3)cc(N(C)C)n2)c(=O)n(C2CC2)c1` [Example 193], the IC50 was less than 100 nM.

For the molecule `COCCNCc1cc(C(=O)Nc2cc(-c3ccc(C#N)cc3C(=O)N3CC(F)(F)C3)cc(C3CC3)n2)c(=O)n(CC(F)(F)F)c1` [Example 194], the 50% inhibitory concentration (IC50) was less than 100 nM.

Regarding `CO[C@@H](C)CNCc1cc(C(=O)Nc2cc(-c3ccc(C#N)cc3C(=O)N3CC(F)(F)C3)cc(OC3CC3)n2)c(=O)n(C2CC2)c1` [Example 195], the IC50 was less than 100 nM.

Molecule `CCOc1cc(-c2ccc(C#N)cc2C(=O)N2CC(F)(F)C2)cc(NC(=O)c2cc(CN[C@@H](C)C3CCC3)cn(C3CC3)c2=O)n1` [Example 196] displayed an IC50 of less than 100 nM.

`CO[C@@H](C)CNCc1cc(C(=O)Nc2cc(-c3ccc(OC(F)F)cc3C(=O)N3CC(F)(F)C3)cc(OC(C)C)n2)c(=O)n(C2CC2)c1` [Example 197] displayed an IC50 of less than 100 nM.

`CO[C@@H](C)CNCc1cc(C(=O)Nc2cc(-c3c(F)cc(Cl)cc3C(=O)N3CC(F)(F)C3)cc(NC(C)C)n2)c(=O)n(C2CC2)c1` [Example 198] returned an IC50 of less than 100 nM.
